From patent US6448475B1, “Manipulation of tocopherol levels in transgenic plants by transformation with a synechocystis 2-methyl-6-phytylplastoquinol/2-methyl-6-solanylplastoquinol-9 methyltransferase” (The University and Community College System of Nevada, priority 1998, dated 2002)

Experiments:
[1] = In vitro 2-methyl-6-phytylplastoquinol methyltransferase assay of E. coli expressed SLL0418; assay type: biochemical, Synechocystis; conditions: E. coli extract
Excerpt: (§1) A second approach to characterizing the Synechocystis genes and proteins involved in tocopherol biosynthesis involved the expression and biochemical analysis of these genes in E. coli. The Synechocystis SLL0418 gene sequence was subcloned from pSLL0418-1 as a Nde1/Hind3 fragment into the Nde1 and Hind3 sites of the E. coli expression vector, pET30B. The resulting plasmid construct was designated p041798 and was transformed into the E. coli strain BL21(DE3)pLysS. Protein expression was induced with 1 mM isopropylthio-b-galactoside (IPTG) in the cells transformed with p041798 and cells transformed with the empty pET30B vector. Induced cultures were grown for 3 hours at 28° C. in a shaking incubator after which the cells were harvested by centrifugation at 8,000 g for 10 minutes at 4° C. and stored at […] The cell pellets were resuspended in 50 mM Tris-HCl pH 8.0, 5 mM DTT, 1 mM PMSF and homogenized with four 10 second burst with a sonicator. Triton X 100 was then added to a final concentration of 1% and the mixture was incubated on ice for 30 minutes. The insoluble material was then removed by centrifugation at 40,000 g for 30 minutes and the supernatant was saved for methyltransferase assays.
A mixture of 6 different isomers of methylphytylplastoquinone was synthesized as described by Henry et al. (1987) Biochem J 242: 367-373. […]

[2] = In vitro 2-methyl-6-solanylplastoquinol methyltransferase assay of E. coli expressed SLL0418; assay type: biochemical, Synechocystis; conditions: E. coli extract
Excerpt: as §1
The 2-methyl-6-solanylplastoquinol substrate was purified from Iris bulbs. One hundred gm of iris bulbs were homogenized in 500 mL acetone. […]

2-methyl-6-phytylplastoquinol/2-methyl-6-solanylplastoquinol-9 methyltransferase [SLL0418]
methylation of 2-methyl-6-phytylplastoquinol to form 2,3-dimethylphytlyplastoquinol ([1]; result in words): able to methylate
amount of 14C labeled 2,3-dimethyl-6-phytylplastoquinol product produced ([1]; substrate 2-methyl-6-phytylplastoquinol, [14C-methyl]-S-adenosylmethionine, 30 minutes, room temperature): 484 CPM
methylation of 2-methyl-6-solanylplastoquinol to form 2,3-dimethylsolanylplastoquinol ([2]; result in words): able to methylate
amount of 14C labeled 2,3-dimethylsolanylplastoquinol product produced ([2]; substrate 2-methyl-6-solanylplastoquinol, [14C-methyl]-S-adenosylmethionine, 30 minutes, room temperature): 174 CPM
